Tests used:
[1] = system: Blumeria graminis f. sp. tritici; assay: Fungicidal activity against Blumeria graminis f. sp. tritici on wheat leaves assessed as rate of appressorium formation measured at 0.2 ppm after 168 hr; format: functional
[2] = system: Blumeria graminis f. sp. tritici; assay: Fungicidal activity against Blumeria graminis f. sp. tritici on wheat leaves assessed as rate of appressorium formation measured at 0.8 ppm after 168 hr; format: functional
[3] = system: Blumeria graminis f. sp. tritici; assay: Fungicidal activity against Blumeria graminis f. sp. tritici on wheat leaves assessed as rate of appressorium formation measured at 3.1 ppm after 168 hr; format: functional
[4] = system: Blumeria graminis f. sp. tritici; assay: Fungicidal activity against Blumeria graminis f. sp. tritici on wheat leaves assessed as rate of appressorium formation measured at 12.5 ppm after 168 hr; format: functional
[5] = system: Colletotrichum gloeosporioides; assay: Fungicidal activity against Glomerella cingulata assessed as inhibition of mycelial growth measured after 3 to 20 days by agar dilution method; format: functional, organism-based
[6] = system: Fusarium graminearum; assay: (§1) Fungicidal activity against Fusarium graminearum assessed as inhibition of mycelial growth measured after 3 to 20 days by agar dilution method; format: functional, organism-based
[7] = system: Fusarium graminearum; assay: as §1; format: functional, organism-based; remark: listed apart in the source
[8] = system: Fusarium oxysporum; assay: Fungicidal activity against Fusarium oxysporum assessed as inhibition of mycelial growth measured after 3 to 20 days by agar dilution method; format: functional, organism-based
[9] = system: Microdochium nivale; assay: Fungicidal activity against Microdochium nivale assessed as inhibition of mycelial growth measured after 3 to 20 days by agar dilution method; format: functional, organism-based
[10] = system: Fulvia fulva; assay: Fungicidal activity against Fulvia fulva assessed as inhibition of mycelial growth measured after 3 to 20 days by agar dilution method; format: functional, organism-based
[11] = system: Elsinoe ampelina; assay: Fungicidal activity against Elsinoe ampelina assessed as inhibition of mycelial growth measured after 3 to 20 days by agar dilution method; format: functional, organism-based
[12] = system: Diaporthe citri; assay: Fungicidal activity against Diaporthe citri assessed as inhibition of mycelial growth measured after 3 to 20 days by agar dilution method; format: functional, organism-based
[13] = system: Discula theae-sinensis; assay: Fungicidal activity against Discula theae-sinensis assessed as inhibition of mycelial growth measured after 3 to 20 days by agar dilution method; format: functional, organism-based, Sinodiscula theae-sinensis
[14] = system: Colletotrichum lagenaria; assay: Fungicidal activity against Colletotrichum lagenaria assessed as inhibition of mycelial growth measured after 3 to 20 days by agar dilution method; format: functional, organism-based
[15] = system: Bipolaris oryzae; assay: Fungicidal activity against Bipolaris oryzae assessed as inhibition of mycelial growth measured after 3 to 20 days by agar dilution method; format: functional, organism-based
[16] = system: Cercospora; assay: Fungicidal activity against Cercospora theae assessed as inhibition of mycelial growth measured after 3 to 20 days by agar dilution method; format: functional, organism-based
[17] = system: Cladosporium cucumerinum; assay: Fungicidal activity against Cladosporium cucumerinum assessed as inhibition of mycelial growth measured after 3 to 20 days by agar dilution method; format: functional, organism-based
[18] = system: Cercospora kikuchii; assay: Fungicidal activity against Cercospora kikuchii assessed as inhibition of mycelial growth measured after 3 to 20 days by agar dilution method; format: functional, organism-based
[19] = system: Cercospora beticola; assay: Fungicidal activity against Cercospora beticola assessed as inhibition of mycelial growth measured after 3 to 20 days by agar dilution method; format: functional, organism-based
[20] = system: Botrytis squamosa; assay: Fungicidal activity against Botryotinia squamosa assessed as inhibition of mycelial growth measured after 3 to 20 days by agar dilution method; format: functional, organism-based
[21] = system: Botryosphaeria; assay: Fungicidal activity against Botryosphaeria sp. assessed as inhibition of mycelial growth measured after 3 to 20 days by agar dilution method; format: functional, organism-based
[22] = system: Botrytis cinerea; assay: Fungicidal activity against Botryotinia fuckeliana assessed as inhibition of mycelial growth measured after 3 to 20 days by agar dilution method; format: functional, organism-based
[23] = system: Alternaria alternata; assay: Fungicidal activity against Alternaria alternata apple pathotype assessed as inhibition of mycelial growth measured after 3 to 20 days by agar dilution method; format: functional, organism-based
[24] = system: Podosphaera pannosa; assay: Fungicidal activity against Podosphaera pannosa in rose assessed as powdery mildew disease control measured after 7 to 10 days by pot test; format: functional
[25] = system: Podosphaera leucotricha; assay: Fungicidal activity against Podosphaera leucotricha in apple assessed as powdery mildew disease control measured after 7 to 10 days by pot test; format: functional
[26] = system: Erysiphe necator; assay: Fungicidal activity against Erysiphe necator in grape assessed as powdery mildew disease control measured after 7 to 10 days by pot test; format: functional
[27] = system: Blumeria graminis f. sp. tritici; assay: Fungicidal activity against Blumeria graminis f. sp. tritici in wheat assessed as powdery mildew disease control measured after 7 to 10 days by pot test; format: functional
[28] = system: Podosphaera aphanis; assay: Fungicidal activity against Podosphaera aphanis var. aphanis in strawberry assessed as powdery mildew disease control measured after 7 to 10 days by pot test; format: functional
[29] = system: Leveillula taurica; assay: Fungicidal activity against Leveillula taurica in sweet pepper assessed as powdery mildew disease control measured after 7 to 10 days by pot test; format: functional; conditions: Phyllactinia taurica
[30] = system: Podosphaera fusca; assay: Fungicidal activity against Sphaerotheca cucurbitae in cucumber assessed as powdery mildew disease control measured after 7 to 10 days by pot test; format: functional
[31] = system: Venturia inaequalis; assay: Fungicidal activity against Venturia inaequalis on apple (Malus pumila var. domestica, cv. Rall's Janett) assessed as scab control at 200 ppm measured after 5 to 10 days; format: functional
[32] = system: Plasmopara viticola; assay: Fungicidal activity against Plasmopara viticola on grape (Vitis vinifera, cv.Kousyu) assessed as downy mildew disease control at 200 ppm measured after 5 to 10 days; format: functional
[33] = system: Phytophthora infestans; assay: Fungicidal activity against Phytophthora infestans on tomato (Lycopersicon esculentum, cv. Regina) assessed as late blight disease control at 200 ppm measured after 5 to 10 days; format: functional
[34] = system: Blumeria graminis f. sp. tritici; assay: Fungicidal activity against Blumeria graminis f. sp. tritici on wheat (Triticum aestivum, cv. Chihoku) assessed as powdery mildew disease control at 50 ppm measured after 5 to 10 days; format: functional
[35] = system: Botrytis cinerea; assay: Fungicidal activity against Botryotinia fuckeliana on kidney bean (Phaseolus vulgaris, cv. Nagauzura) assessed as grey mold disease control at 200 ppm measured after 5 to 10 days; format: functional
[36] = system: Blumeria graminis f. sp. tritici; assay: Fungicidal activity against Blumeria graminis f. sp. tritici on wheat (Triticum aestivum, cv. Chihoku) assessed as powdery mildew disease control at 0.01 ppm measured after 5 to 10 days; format: functional
[37] = system: Blumeria graminis f. sp. tritici; assay: Fungicidal activity against Blumeria graminis f. sp. tritici on wheat (Triticum aestivum, cv. Chihoku) assessed as powdery mildew disease control at 0.05 ppm measured after 5 to 10 days; format: functional
[38] = system: Blumeria graminis f. sp. tritici; assay: Fungicidal activity against Blumeria graminis f. sp. tritici on wheat (Triticum aestivum, cv. Chihoku) assessed as powdery mildew disease control at 0.2 ppm measured after 5 to 10 days; format: functional
[39] = system: Blumeria graminis f. sp. tritici; assay: Fungicidal activity against Blumeria graminis f. sp. tritici on wheat (Triticum aestivum, cv. Chihoku) assessed as powdery mildew disease control at 0.8 ppm measured after 5 to 10 days; format: functional
[40] = system: Blumeria graminis f. sp. tritici; assay: Fungicidal activity against Blumeria graminis f. sp. tritici on wheat (Triticum aestivum, cv. Chihoku) assessed as powdery mildew disease control at 3.1 ppm measured after 5 to 10 days; format: functional
[41] = system: Blumeria graminis f. sp. tritici; assay: Fungicidal activity against Blumeria graminis f. sp. tritici on wheat (Triticum aestivum, cv. Chihoku) assessed as powdery mildew disease control at 12.5 ppm measured after 5 to 10 days; format: functional
[42] = system: Blumeria graminis f. sp. tritici; assay: Fungicidal activity against Blumeria graminis f. sp. tritici on wheat (Triticum aestivum, cv. Chihoku) assessed as powdery mildew disease control at 200 ppm measured after 5 to 10 days; format: functional

O=C(Cc1ccccc1)N/C(=N\OCC1CC1)c1c(C(F)(F)F)ccc(F)c1F [CYFLUFENAMID]
inhibition at 0.2 ppm [1]: 80.1%
inhibition at 0.8 ppm [2]: 99.4%
inhibition at 3.1 ppm [3]: 99.9%
inhibition at 12.5 ppm [4]: 100%
EC50 [5]: > 100 ppm
EC50 [6]: > 100 ppm
EC50 [7]: > 100 ppm
EC50 [8]: > 100 ppm
EC50 [9]: 0.3 ppm
EC50 [10]: > 100 ppm
EC50 [11]: 5 ppm
EC50 [12]: 6 ppm
EC50 [13]: > 100 ppm
EC50 [14]: > 100 ppm
EC50 [15]: > 100 ppm
EC50 [16]: > 100 ppm
EC50 [17]: > 100 ppm
EC50 [18]: 1 ppm
EC50 [19]: 0.3 ppm
EC50 [20]: > 100 ppm
EC50 [21]: 0.07 ppm
EC50 [22]: > 100 ppm
EC50 [23]: > 100 ppm
MIC [24]: < 1.6 µg/mL
MIC [25]: < 1.6 µg/mL
MIC [26]: < 1.6 µg/mL
MIC [27]: < 0.8 µg/mL
MIC [28]: < 0.8 µg/mL
MIC [29]: < 0.8 µg/mL
MIC [30]: < 0.8 µg/mL
Efficacy [31]: 0%
Efficacy [32]: 0%
Efficacy [33]: 0%
Efficacy [34]: 100%
Efficacy [35]: 0%
Efficacy [36]: 6%
Efficacy [37]: 30%
Efficacy [38]: 66%
Efficacy [39]: 100%
Efficacy [40]: 100%
Efficacy [41]: 100%
Efficacy [42]: 100%
